{
  "source": "patent US20050192262A1",
  "about": "“Treatment of tumours” (priority 2001, published 2005)",
  "key": {"[1]": {"system": "β-catenin", "experiment": "Western blotting of Dunning AT-1 rat prostate tumours", "type": "in vivo", "conditions": "for β-catenin expression, optical density: Animals I, controls set to 100, mean (range), α-AED 10 mg 96 hours, β-AED 80 mg 456 hours, α+β sequential; for expression of β-catenin: Animals II, exposure 80 hours in all arms", "description": "(§1) The animal experiment described above was repeated.\n(§2) Thawed rat tumours from both experiments above were homogenized in ice cold lysis-buffer. (160 mM NaCl, 10 mM HEPES, 2 mM CaCl2, 5% SDS, 0.5% Triton X-100, 100 μg/ml phenyl-metylsulfonyl fluoride, 1 μg/ml leupeptin and 2 μg/ml aprotinin), placed on ice for 15 minutes and following clarification centrifuged for 10 minutes at 13,000 g. Protein content of homogenates were determined by Lowry assay.\n(§3) Protein in lysates (90 μg) were separated by electrophoresis using 8% SDS-PAGE and separated proteins were transferred onto a nitrocellulose membrane (Amersham) in trans-blot electrophoretic transfer cell (Bio-Rad Laboratories).\n(§4) After washing in TTBS the blots were reincubated with horseradish peroxidase conjugated secondary antibody (anti-goat antibodies 2020, Santa Cruz) diluted 1:4000 in TTBS containing 3% (w/v) non-fat, dried milk for one hour. Blots were developed using an enhanced chemiluminescence system (ECL, Amersham) and exposed to Hyperfilm ECL (Amersham). Optical density was measured densitometrically.\n(§5) The blots were striped and rehybridized with antibodies against β-catenin (C-18, sc. 1496) and COX-2 (C-20, sc 1745) antibodies.\n(§6) In the second animal experiment tumours were investigated for expression of β-catenin, COX-2 and cyclin D1 (A-12, sc. 8396)."}, "[2]": {"system": "PC-3", "experiment": "Caspase-3 apoptosis assay (Ac-DEVD-AMC fluorescence)", "type": "cell-based, human", "conditions": "96 hours; for Mean fluorescence PC-3 samples/100 cells n = 3: corrected for cell number; for Caspase 3-mediated fluorescence compared to untreated controls: PC-3, 100 nM, not corrected for cell numbers", "description": "(§7) Exposure was maintained for 96 hours and cells in culture flasks were then treated with 5 ml of trypsin (0.25%) for PC-3 and trypsin and 3 ml of Versene (0.2 mM) for DU-145. Cells were then mechanically loosened, using a glass spatula. 100 μL aliquots were removed for Trypan blue exclusion trial. 200 μL aliquots were removed for cytospin preparations. The remaining 700 μL samples were then centrifuged for 5 minutes at 510×g at 4° C. Supernatant was removed and cells were resuspended in medium in 1 ml of insect cell lysis buffer (Pharmingen # 21425A) and incubated for 30 minutes on ice. The cell lysates were then stored at −70° C. until analysis.\nAliquots of a 100 μL of cell lysate were removed for the caspase assay. Each portion was mixed with 1 ml protease assay buffer and Ac-DEVD-AMC substrate (Pharmingen # 66081U) with a final concentration of 20 μM. Solutions were incubated for 60 minutes at 37° C.\nTo determine background fluorescence a control was prepared, containing no cell lysate but the same amounts of protease assay buffer, lysis buffer and Ac-DEVD-AMC substrate.\nFluorescence was measured using a spectrofluorometer (RF 540, Shimadzu Data Recorder DR3, Instrument AB, Lambda) at 415-450 nm with an excitation wavelength of 380 nm."}, "[3]": {"system": "cyclin D1", "experiment": "Western blotting of Dunning AT-1 rat prostate tumours", "type": "in vivo", "conditions": "Animals II; exposure 80 hours in all arms", "description": "as §1\n(§8) Group 1 received a single dose of 10 mg 17α-AED sc. near tumour.\n(§9) Group 2 received a single dose of 80 mg 17β-AED in the same way.\n(§10) Group 3 received a single dose of 25 mg 17α OH-pregnenolone in the same way.\n(§11) Group 4 received a single dose of 7.5 mg 5-androstene-3β,7β,17α-triol.\nProtein content of homogenates were determined by Lowry assay."}, "[4]": {"system": "COX-2", "conditions": "Animals I; controls set to 100; mean (range); α-AED 10 mg 96 hours, β-AED 80 mg 456 hours, α+β sequential", "description": "as §1, §2, §3, §4, §5, §6"}, "[5]": {"system": "VEGF", "experiment": "Immunostaining of tumour sections against VEGF", "type": "in vivo, rat", "description": "Working dilution 1:100. As negative control antibody a mouse IgG, clone DAK-GO1, kappa, ×931, Dako, was used with a working dilution of 1:50.\nas §1, §8, §9, §10, §11"}, "[6]": {"system": "DU-145", "experiment": "Trypan blue exclusion trial, number of viable and dead cells", "type": "cell-based, human", "conditions": "96 hours; for DU-145 mean % viable / DU-145 mean Dead cells / DU-145 mean Tot. cells / DU-145 mean Viable cells: 100 nM; for DU-145 mean Dead cells / DU-145 mean Tot. cells / DU-145 mean Viable cells: mean (range)", "description": "(§12) Human prostatic cancer cell lines, PC-3 and DU-145, were used. Frozen cell lines were established in culture. DU-145, which was received as a tumour piece, was first disintegrated in a sterile Petri dish, using a pair of scissors. The disintegrated tumour was transferred to a […] cell-culture flask containing medium. For medium, Ham's F 10 was used for PC-3 and RPMI 1640 for DU-145.\n(§13) FBS 10%, 0.2% NaHCO3 (7.5%), 2 mM L-glutamine (200 mM) and 0.005 mg/ml gentamycin (5 mg/ml) were added to culturing media for both cell lines.\n(§14) Cells were grown in […] cell culture flasks until nearly confluent and culture medium was changed twice weekly. A solution of 17α-AED, 17-β-AED as well as a mixture of both in equal parts of DMSO and ethanol diluted in culture medium, not allowing the concentration of DMSO in culture-flasks to exceed 0.15%, was added respectively.\n(§15) The concentration of AED in each culture flask was 100 nM. Controls were exposed to the same concentration of DMSO and ethanol in culture medium.\nas §7\n(§16) Trypan Blue Exclusion Trial 100 μL aliquots of the initial cell suspension in PBS were used to determine the viability of cells collected by means of the trypan blue exclusion assay. 10 μL of the cell suspensions were mixed with 10 μL trypan blue solution (Sigma Chemical Co. # T8154) and left to sit for 3 minutes. The numbers of viable and dead cells were counted in a hemocytometer."}, "[7]": {"system": "PC-3", "experiment": "Trypan blue exclusion trial, number of viable and dead cells", "type": "cell-based, human", "conditions": "96 hours; for PC-3 mean % viable / PC-3 mean Dead cells / PC-3 mean Tot. cells / PC-3 mean Viable cells: 100 nM; for PC-3 mean Dead cells / PC-3 mean Tot. cells / PC-3 mean Viable cells: mean (range); for increase in total number of cells compared to controls / proportion of viable cells: PC-3, 100 nM", "description": "as §12, §13, §14, §15, §7, §16"}, "[8]": {"system": "PPARγ", "conditions": "Animals I; controls set to 100; mean (range); α-AED 10 mg 96 hours, β-AED 80 mg 456 hours, α+β sequential", "description": "as §2, §3, §4\nAll experiments were repeated twice in separate assays."}, "[9]": {"system": "Dunning R 3327, AT-1, rat prostatic tumour", "experiment": "Tumour growth after s.c. injection near tumour", "type": "in vivo", "conditions": "for tumour volumes: Animals II, single s.c. injection in the proximity of the tumour", "description": "as §1, §8, §9, §10, §11\nA fifth group served as tumour bearing controls."}},
  "data": [
    {"compound": "C[C@]12CC[C@H]3[C@@H](CC=C4C[C@@H](O)CC[C@@]43C)[C@@H]1CC[C@@H]2O", "note": "[Compound 17β-AED, reference compound]", "values": [
      {"measurement": "β-catenin expression, optical density", "setting": "[1]", "value": "14(10-22)"},
      {"measurement": "expression of β-catenin", "setting": "[1]", "value": "did not reduce"},
      {"measurement": "Mean fluorescence PC-3 samples/100 cells n = 3", "setting": "[2]; 100 nM, mean (range)", "value": "45.5(24.5-75.2)"},
      {"measurement": "Mean fluorescence PC-3 samples n = 3", "setting": "[2]; 100 nM, mean (range)", "value": "29.6(17.4-48.1)"},
      {"measurement": "Caspase 3-mediated fluorescence compared to untreated controls", "setting": "[2]", "value": "approximately a doubling of fluorescence"},
      {"measurement": "expression of cyclin D1", "setting": "[3]", "value": "did not reduce"},
      {"measurement": "COX-2 expression, optical density", "setting": "[4]", "value": "135(133-137)"},
      {"measurement": "staining for VEGF", "setting": "[5]; Animals II", "value": "strong staining for VEGF"},
      {"measurement": "DU-145 mean % viable", "setting": "[6]", "value": 72.1, "unit": "%"},
      {"measurement": "DU-145 mean Dead cells", "setting": "[6]", "value": "35(31-42)"},
      {"measurement": "DU-145 mean Tot. cells", "setting": "[6]", "value": "125(109-149)"},
      {"measurement": "DU-145 mean Viable cells", "setting": "[6]", "value": "90(78-107)"},
      {"measurement": "PC-3 mean % viable", "setting": "[7]", "value": 73.7, "unit": "%"},
      {"measurement": "PC-3 mean Dead cells", "setting": "[7]", "value": "17(16-18)"},
      {"measurement": "PC-3 mean Tot. cells", "setting": "[7]", "value": "66(63-71)"},
      {"measurement": "PC-3 mean Viable cells", "setting": "[7]", "value": "49(46-53)"},
      {"measurement": "increase in total number of cells compared to controls", "setting": "[7]", "value": 29, "unit": "%"},
      {"measurement": "proportion of viable cells", "setting": "[7]", "value": "small decrease in proportion of viable cells"},
      {"measurement": "PPARγ expression, optical density", "setting": "[8]", "value": "47(40-53)"},
      {"measurement": "tumour volumes", "setting": "[9]", "value": "~200", "unit": "%"},
      {"measurement": "antitumoural effect / tumour growth", "setting": "[9]; original experiment (Animals I)", "value": "growth-stimulatory effect"}
    ]},
    {"compound": "C[C@]12CC[C@H]3[C@@H](CC=C4C[C@@H](O)CC[C@@]43C)[C@@H]1CC[C@H]2O", "note": "[Compound 17α-AED, androstene-3β,17α-diol]", "values": [
      {"measurement": "β-catenin expression, optical density", "setting": "[1]", "value": "20(15-30)"},
      {"measurement": "expression of β-catenin", "setting": "[1]", "value": "marked decrease"},
      {"measurement": "Mean fluorescence PC-3 samples/100 cells n = 3", "setting": "[2]; 100 nM, mean (range)", "value": "19.5(15.7-25.9)"},
      {"measurement": "Caspase 3-mediated fluorescence compared to untreated controls", "setting": "[2]", "value": "essentially unaltered intensity"},
      {"measurement": "expression of cyclin D1", "setting": "[3]", "value": "marked decrease"},
      {"measurement": "COX-2 expression, optical density", "setting": "[4]", "value": "219(192-234)"},
      {"measurement": "expression of VEGF (immunostaining)", "setting": "[5]; Animals I, 3/4 samples", "value": "very weak"},
      {"measurement": "DU-145 mean % viable", "setting": "[6]", "value": 78.1, "unit": "%"},
      {"measurement": "DU-145 mean Dead cells", "setting": "[6]", "value": "29(21-37)"},
      {"measurement": "DU-145 mean Tot. cells", "setting": "[6]", "value": "131(122-148)"},
      {"measurement": "DU-145 mean Viable cells", "setting": "[6]", "value": "102(95-111)"},
      {"measurement": "total number of cells", "setting": "[6]; DU-145, 100 nM", "value": "significant decrease in total number of cells"},
      {"measurement": "PC-3 mean % viable", "setting": "[7]", "value": 71.6, "unit": "%"},
      {"measurement": "PC-3 mean Dead cells", "setting": "[7]", "value": "23(16-32)"},
      {"measurement": "PC-3 mean Tot. cells", "setting": "[7]", "value": "81(64-98)"},
      {"measurement": "PC-3 mean Viable cells", "setting": "[7]", "value": "58(49-77)"},
      {"measurement": "increase in total number of cells compared to controls", "setting": "[7]", "value": 59, "unit": "%"},
      {"measurement": "proportion of viable cells", "setting": "[7]", "value": "small decrease in proportion of viable cells"},
      {"measurement": "PPARγ expression, optical density", "setting": "[8]", "value": "190(176-210)"},
      {"measurement": "tumour volumes", "setting": "[9]", "value": "~150", "unit": "%"}
    ]}
  ]
}
